From a compilation of properties of binary mixtures (doi:10.1007/s10953-013-9990-0)

Test: xn = mol fraction of the nth substance listed
Conditions: 101 kPa

CCCC[n+]1cccc(C)c1.O=S(=O)([N-]S(=O)(=O)C(F)(F)F)C(F)(F)F + CCCO
speed of sound [m/s]
Conditions | 298.15 K | 303.15 K | 308.15 K
x2 = 0 | 1248.3 | 1237.1 | 1226
x2 = 0.0431 | – | 1235.4 | 1224.3
x2 = 0.0889 | 1244.5 | 1233.4 | 1222.3
x2 = 0.1564 | 1241.8 | – | 1219.1
x2 = 0.2913 | – | 1223.2 | 1211.8
x2 = 0.3788 | 1229.5 | 1217.9 | 1206.3
x2 = 0.5665 | 1215.6 | 1203.5 | 1191.5
x2 = 0.5901 | – | 1201.4 | 1189.3
x2 = 0.6913 | 1204 | 1191.4 | –
x2 = 0.8006 | 1194.1 | 1180.8 | 1167.7
x2 = 0.8947 | 1189.3 | 1174.9 | –
x2 = 0.9467 | 1193.4 | 1178 | 1162.7

CCCC[N+]1(C)CCCC1.O=S(=O)([N-]S(=O)(=O)C(F)(F)F)C(F)(F)F + CC(C)O
speed of sound [m/s]
Conditions | 298.15 K | 303.15 K | 308.15 K
x2 = 0 | 1269.3 | – | 1247.1
x2 = 0.0593 | 1264.9 | 1253.7 | 1243.5
x2 = 0.1319 | – | 1248.7 | 1237.4
x2 = 0.2344 | 1250.8 | 1239.1 | –
x2 = 0.3929 | 1234.8 | 1222.9 | 1211.2
x2 = 0.4935 | 1222.3 | 1210.2 | 1198.1
x2 = 0.5927 | 1207.5 | – | 1182.9
x2 = 0.718 | 1184.1 | 1171.2 | 1158.4
x2 = 0.8015 | 1165.1 | 1151.8 | 1138.5
x2 = 0.9018 | 1143 | 1129.1 | 1115.9
x2 = 0.9491 | 1138.1 | 1122.5 | 1106.8

CCCC[n+]1cccc(C)c1.O=S(=O)([N-]S(=O)(=O)C(F)(F)F)C(F)(F)F + CCO
speed of sound [m/s]
Conditions | 298.15 K | 303.15 K | 308.15 K
x2 = 0 | – | 1237.1 | –
x2 = 0.0533 | – | – | 1223.8
x2 = 0.0924 | 1244.5 | 1233.1 | –
x2 = 0.1963 | 1239.3 | 1227.9 | 1216.6
x2 = 0.3011 | 1233.2 | 1221.7 | 1210.3
x2 = 0.3959 | 1226.5 | 1214.9 | 1203.4
x2 = 0.4982 | – | 1206 | 1194.3
x2 = 0.599 | – | – | 1183.2
x2 = 0.6829 | 1195.9 | 1183.6 | 1171.3
x2 = 0.7355 | 1187.7 | 1175.2 | –
x2 = 0.8008 | 1176.4 | 1163.2 | 1150.3
x2 = 0.8991 | 1156.9 | 1142.8 | 1128.7
x2 = 0.9436 | 1149.9 | 1134.8 | 1119.9

CCO + CCCC[N+]1(C)CCCC1.O=S(=O)([N-]S(=O)(=O)C(F)(F)F)C(F)(F)F
x1 = 1
Conditions | speed of sound [m/s]
303.15 K | 1126.7
308.15 K | 1109.8

CCCO + CCCC[N+]1(C)CCCC1.O=S(=O)([N-]S(=O)(=O)C(F)(F)F)C(F)(F)F
x1 = 1
Conditions | speed of sound [m/s]
298.15 K | 1206.4
303.15 K | 1189.3

CCO + CCCC[n+]1cccc(C)c1.O=S(=O)([N-]S(=O)(=O)C(F)(F)F)C(F)(F)F
x1 = 1
Conditions | speed of sound [m/s]
298.15 K | 1143.6
303.15 K | 1126.7
308.15 K | 1109.8

CC(C)O + CCCC[N+]1(C)CCCC1.O=S(=O)([N-]S(=O)(=O)C(F)(F)F)C(F)(F)F
x1 = 1
Conditions | speed of sound [m/s]
298.15 K | 1139.6
303.15 K | 1122
308.15 K | 1104.4

CC(C)O + CCCC[n+]1cccc(C)c1.O=S(=O)([N-]S(=O)(=O)C(F)(F)F)C(F)(F)F
x1 = 1
Conditions | speed of sound [m/s]
298.15 K | 1139.6
303.15 K | 1122

CCCO + CCCC[n+]1cccc(C)c1.O=S(=O)([N-]S(=O)(=O)C(F)(F)F)C(F)(F)F
x1 = 1
Conditions | speed of sound [m/s]
298.15 K | 1206.4
303.15 K | 1189.3
308.15 K | 1172.3

CCCC[N+]1(C)CCCC1.O=S(=O)([N-]S(=O)(=O)C(F)(F)F)C(F)(F)F + CCCO
speed of sound [m/s]
Conditions | x2 = 0 | x2 = 0.0545 | x2 = 0.0931 | x2 = 0.1903 | x2 = 0.2935 | x2 = 0.3972 | x2 = 0.5916 | x2 = 0.7837 | x2 = 0.8975 | x2 = 0.9472
298.15 K | 1269.3 | 1267 | 1264.9 | 1259.7 | – | 1246 | 1230 | 1201.2 | 1190.9 | –
303.15 K | 1258.1 | – | 1253.5 | 1248.2 | 1241.7 | 1234.2 | – | 1188 | 1176.4 | 1178
308.15 K | 1247.1 | 1244.4 | 1242.3 | 1236.9 | 1230.2 | 1222.5 | 1206 | 1175 | 1162 | 1162.7

CCCC[N+]1(C)CCCC1.O=S(=O)([N-]S(=O)(=O)C(F)(F)F)C(F)(F)F + CCO
speed of sound [m/s]
Conditions | 298.15 K | 303.15 K | 308.15 K
x2 = 0 | 1269.3 | 1258.2 | 1247.1
x2 = 0.0586 | 1266.6 | 1255.3 | 1244.2
x2 = 0.1981 | 1258.6 | 1247.2 | 1235.9
x2 = 0.2834 | 1252.8 | 1241.3 | 1229.9
x2 = 0.4449 | 1238.4 | 1226.6 | 1215
x2 = 0.5133 | 1230.8 | 1218.9 | 1207.1
x2 = 0.6012 | 1219.2 | – | –
x2 = 0.7078 | – | 1189.2 | 1176.8
x2 = 0.7929 | 1184.8 | 1171.6 | –
x2 = 0.8997 | 1158.2 | 1144 | 1129.8
x2 = 0.9492 | – | 1133.2 | –

CCCC[n+]1cccc(C)c1.O=S(=O)([N-]S(=O)(=O)C(F)(F)F)C(F)(F)F + CC(C)O
speed of sound [m/s]
Conditions | 298.15 K | 303.15 K | 308.15 K
x2 = 0 | 1248.3 | 1237.1 | 1226
x2 = 0.0534 | 1245.3 | 1234.1 | 1222.2
x2 = 0.1034 | – | 1231 | 1219.8
x2 = 0.1577 | – | 1227.4 | 1216.1
x2 = 0.1756 | 1237 | 1225.7 | 1214.3
x2 = 0.3062 | 1227.4 | 1215.8 | 1204.2
x2 = 0.3957 | 1220.8 | 1209 | 1197.1
x2 = 0.51 | 1208.6 | 1197.3 | 1185.3
x2 = 0.6002 | 1197.7 | 1185.3 | 1173
x2 = 0.7046 | 1182.1 | 1169.3 | 1156.5
x2 = 0.8006 | – | – | 1135.4
x2 = 0.8988 | – | 1129.5 | 1115.2
